Reference: patent US10487117B2, “Antimicrobial peptide for nosocomial infections” (priority 2015, dated 2019)
≈ marks a conversion by molar mass, not a printed value. Like-named read-outs stand apart in the source and are kept apart here. Residues, ends and D or L forms follow the SMILES beside them.

Key:
Format in all cases: cell-based, Pseudomonas aeruginosa
planktonic P. aeruginosa [1] = test: Minimum inhibitory concentration (MIC100) assay; details: 4 h at 37° C., mean ± SEM, max 50 μM
Method: First the peptide ability to inhibit the proliferation of P. aeruginosa cells was assessed by determining the minimum inhibitory concentration (MIC100).
MIC100 of each protein/peptide was determined as described (Torrent M. et al. 2012). Bacteria were incubated at 37° C. overnight in Luria-Bertani broth (LB) and diluted to give approximately 5×10^5 CFU/mL. In each assay protein/peptide serially diluted from 50 to 0.2 μM in 10 mM sodium phosphate, 0.1 M NaCl, buffer pH 7.5 were added to 100 μl bacteria dilution and incubated for 4 h at 37° C. Subsequently, samples were plated onto Petri dishes and incubated at 37° C. overnight. MIC100 values were determined as function of the total growth inhibition by the protein and peptides, from two independent experiments performed in triplicate.

planktonic P. aeruginosa [2] = tested on: planktonic P. aeruginosa
Method: The microbial cell viability was then assayed using the BacTiter-Glo™ luminescent kit. […] No cell reduction was detected for the peptide GL-13 even for the maximum concentration assayed (50 μM).
Bacterial viability was assayed using the BacTiter-Glo™ microbial cell viability kit. Briefly, protein/peptides were dissolved in 10 mM sodium phosphate, 0.1M buffer, pH 7.5, serially diluted from 50 to 0.1 μM and tested in a 96-well microtiter plate containing P. aeruginosa planktonic (OD600˜0.2) or 24 h formed biofilm for 4 h at 37° C. Fifty microliters of BacTiter-Glo™ reagent was added to each well according to the manufacturer's instructions and incubated at room temperature for 15 min. Luminescence was read on a Victor3 plate reader with a 3-s integration time. Fifty percent (ED50) and total inhibitory concentrations were calculated by fitting the data to a dose-response curve.

planktonic P. aeruginosa [3] = test: SYTOX Green membrane permeabilization assay, planktonic; details: for Permeabilization %max: 10% Triton X-100 as maximum reference
Method: Further insight into the membrane-permeabilizing effect of the selected AMPs against P. aeruginosa was evaluated by the Sytox Green assay. Local membrane disturbances allow the cell uptake of the fluorescent Sytox Green dye that subsequently stains the cell nucleic acids; the fluorescence increase is registered to monitor the cell membrane permeabilization. Therefore, the half permeabilization action (ED50) was measured, and the total permeabilization activity expressed as a percentage (Table 5). […] On the other hand, WY-12 and CA-M required a 6- to 7-fold greater concentration than RNase 3 to produce half of their permeabilizing effect.
Membrane permeabilization was followed using the method SYTOX Green Fluorescence membrane permeabilization assay. In the planktonic assay, bacterial cells were grown at 37° C. to an OD600=0.2, centrifuged at 5000×g for 5 min, and resuspended in 1×PBS to an OD600=0.2. An aliquot of 200 μl was then transferred to a microtiter plate. For biofilm assay, 24 h formed P. aeruginosa biofilm in a 96-well microtiter plate were washed three times with sterile PBS. SYTOX Green was added to a final concentration of 1 μM and incubated 15 min in darkness. Changes in the fluorescence were continuously recorded after addition of a serially diluted protein/peptides from 50 to 0.1 μM in a Victor3 plate reader. The peptide concentration required to achieve half of total and total membrane permeabilization achieved after 40 min was estimated from nonlinear regression analysis as previously described (Pulido D. et al. Antimicrob Agents Chemother 2013). A maximum reference value was taken for Triton X-100 at 10%.

[4] = tested on: pre-established P. aeruginosa biofilm; test: Biofilm eradication assay, crystal violet staining; details: 24 h formed biofilm; 4 h at 37° C.; 10% Triton X-100 as maximum reference
Method: Following, the biofilm eradication activity was determined (FIG. 1 and Table 6). […] Moreover, the biofilm eradication activity of all the tested reference peptides was well above the maximum concentration tested (50 μM), except for RN3(5-17P22-36) which was able to eradicate the biofilm close to 50 μM.
Biofilm formation assay was modified from the previously described protocol (Huedo P. et al. 2014). Briefly, overnight cultures of P. aeruginosa were centrifuged at 5000×g for 5 min, washed and adjusted to an OD600=0.1 in tryptic soy medium (TSB). Two hundred microliters of the bacterial suspension were dispensed in each well of a polystyrene 96-well microtiter plate (Greiner Bio-one, France). The plate was incubated at 37° C. on an orbital shaker (30 rpm). The media was exchanged with fresh pre-warmed TSB after 4 h, in order to remove the non-attached bacteria. After 24 h incubation, the formation of biofilm was then evaluated using the crystal violet staining technique (Stepanovic S. et al. 2000). Briefly, the plates were washed three times with PBS, fixed at 60° C. for 1 h, and stained for 15 min with 200 μl of 0.1% crystal violet. After the dye was discarded, plates were rinsed in PBS and allowed to dry for 30 min at 37° C. Crystal violet was dissolved in 250 μl of 95% ethanol for 15 min, and the OD570 of the extracted dye was measured using a Victor3 plate reader (Perkin-Elmer, Waltham, Mass.).
Biofilms were grown as above. Twenty-four hour formed P. aeruginosa biofilm was washed three times with sterile PBS, and rinsed with 10 mM sodium phosphate buffer pH 7.5. Each well was treated with increasing protein/peptide concentrations (from 0.01 to 50 μM) and incubated at 37° C. for 4 h. The biofilm eradication was then evaluated using the crystal violet staining technique (Stepanovic S. et al. 2000). The ability of the antimicrobial peptides to disperse and reduce the biofilm mass of preformed biofilms was calculated. The peptide concentration required to achieve total preformed biofilm eradication after 4 h incubation time was estimated. A maximum reference value was taken for Triton X-100 at 10%. The minimum biofilm eradication concentration (MBEC), defined as the protein/peptide concentration where the 99.9% of the biofilm mass is eradicated was estimated.

[5] = planktonic P. aeruginosa, 4 h at 37° C., mean ± SEM, N.D. = not detected at 50 μM, read-out: IC50 (50% bacterial viability)

Compound | MIC100 (planktonic P. aeruginosa [1]) | IC50 (planktonic P. aeruginosa [2]; planktonic, 4 h) | Permeabilization ED50 (planktonic P. aeruginosa [3]; 40 min, N.D. = not detected at 50 μM) | Biofilm eradication (%max) [4] | IC50 (planktonic P. aeruginosa [2]; [5]) | Permeabilization %max (planktonic P. aeruginosa [3])
CC[C@H](C)[C@H](NC(=O)[C@H](CCC(N)=O)NC(=O)CN)C(=O)N[C@H](C(=O)N[C@@H](CC(N)=O)C(=O)N[C@@H](CC(C)C)C(=O)N[C@@H](CCCCN)C(=O)N[C@@H](C)C(=O)N[C@@H](CO)C(=O)N[C@@H](CC(C)C)C(=O)N[C@@H](CC(=O)O)C(=O)N[C@@H](CC(C)C)C(=O)N[C@@H](CC(C)C)C(N)=O)[C@@H](C)CC [GL-13, GQIINLKASLDLL-NH2] (H-GQIINLKASLDLL-NH2) | >50 µM | > 50000 nM | unable to perform any cell membrane permeabilization | 33.28 ± 1.07% |  | 
CC[C@H](C)[C@H](NC(=O)CNC(=O)[C@@H](NC(=O)[C@H](CCCCN)NC(=O)[C@H](CCCCN)NC(=O)[C@H](Cc1ccccc1)NC(=O)[C@H](CC(C)C)NC(=O)[C@H](CCCCN)NC(=O)[C@H](Cc1c[nH]c2ccccc12)NC(=O)[C@@H](N)CCCCN)[C@@H](C)CC)C(=O)NCC(=O)N[C@@H](C)C(=O)N[C@H](C(=O)N[C@@H](CC(C)C)C(=O)N[C@@H](CCCCN)C(=O)N[C@H](C(=O)N[C@@H](CC(C)C)C(=O)N[C@H](C(=O)N[C@H](C(=O)NCC(=O)N[C@@H](CC(C)C)C(=O)N1CCC[C@H]1C(=O)N[C@@H](C)C(=O)N[C@@H](CC(C)C)C(=O)N[C@H](C(=O)N[C@@H](CO)C(N)=O)[C@@H](C)CC)[C@@H](C)O)[C@@H](C)O)C(C)C)C(C)C [CA-M] | 6.00 ± 0.05 µM (≈ 16.8 µg/mL) |  |  | 53.03 ± 1.46% | 2540 ± 1080 nM | 34.69 ± 2.18%
CC[C@H](C)[C@H](NC(=O)[C@H](CCCCN)NC(=O)[C@H](CCC(=O)O)NC(=O)[C@H](CCCCN)NC(=O)[C@H](CO)NC(=O)[C@H](CCCCN)NC(=O)[C@H](CCCNC(=N)N)NC(=O)[C@H](Cc1ccccc1)NC(=O)[C@H](Cc1ccccc1)NC(=O)[C@H](CC(=O)O)NC(=O)CNC(=O)[C@H](CC(C)C)NC(=O)[C@@H](N)CC(C)C)C(=O)NCC(=O)N[C@@H](CCCCN)C(=O)N[C@@H](CCC(=O)O)C(=O)N[C@@H](Cc1ccccc1)C(=O)N[C@@H](CCCCN)C(=O)N[C@@H](CCCNC(=N)N)C(=O)N[C@H](C(=O)N[C@H](C(=O)N[C@@H](CCC(N)=O)C(=O)N[C@@H](CCCNC(=N)N)C(=O)N[C@H](C(=O)N[C@@H](CCCCN)C(=O)N[C@@H](CC(=O)O)C(=O)N[C@@H](Cc1ccccc1)C(=O)N[C@@H](CC(C)C)C(=O)N[C@@H](CCCNC(=N)N)C(=O)N[C@@H](CC(N)=O)C(=O)N[C@@H](CC(C)C)C(=O)N[C@H](C(=O)N1CCC[C@H]1C(=O)N[C@@H](CCCNC(=N)N)C(=O)N[C@H](C(=O)N[C@@H](CCC(=O)O)C(=O)N[C@@H](CO)C(N)=O)[C@@H](C)O)C(C)C)[C@@H](C)CC)C(C)C)[C@@H](C)CC [LL-37] | 6.00 ± 0.05 µM (≈ 27 µg/mL) |  |  | 35.54 ± 1.13% | 2280 ± 220 nM | 38.80 ± 1.13%
